Key:
Plasmodium falciparum [1] = experiment: microbe, parasite or virus in culture; conditions: W2, 48 h
[2] = Cytotoxicity against African green monkey BGM cells assessed as cell viability after 24 hrs by neutral red assay; format: cell-based; conditions: chlorocebus aethiops, read-out: MLD50
in vitro = conditions: monkey
Plasmodium falciparum [3] = experiment: Potency index, ratio of primaquine IC50 to compound IC50 for chloroquine-resistant Plasmodium falciparum W2 infected in human red blood cells; format: functional
Plasmodium falciparum [4] = experiment: Antimalarial activity against chloroquine-sensitive Plasmodium falciparum NF54 infected in human erythrocytes incubated for 48 hrs by [3H]hypoxanthine incorporation assay; format: functional, organism-based

SMILES | IC50 (Plasmodium falciparum [1]) | CC50 at 24 h [2] | selectivity ratio (in vitro) | Ratio IC50 (Plasmodium falciparum [3]) | IC50 (Plasmodium falciparum [4])
COc1cc(NC(C)CCCN)c2ncccc2c1 (centres undefined) [PRIMAQUINE] | 1.89 µM | 452 µM | 239 | – | –
COc1cc(NC(C)CCCn2c(-c3ccc(F)cc3)c(-c3ccccc3)c(C(=O)Nc3ccccc3)c2C(C)C)c2ncccc2c1 (centres undefined) | 1.41 µM | > 1560 µM | > 1110 | 5 | –
CC(C)c1c(C(=O)Nc2ccccc2)c(-c2ccccc2)c(-c2ccc(F)cc2)n1CCCNc1ccnc2cc(Cl)ccc12 | 0.65 µM | 136 µM | 210 | 5 | –
CC(C)c1c(C(=O)Nc2ccccc2)c(-c2ccccc2)c(-c2ccc(F)cc2)n1CCCCNc1ccnc2cc(Cl)ccc12 | 0.4 µM | 187 µM | 468 | 5 | –
CCCCn1c(-c2ccc(F)cc2)c(-c2ccccc2)c(C(=O)Nc2ccccc2)c1C(C)C | 6.39 µM | > 2200 µM | > 345 | – | –
CC(C)c1c(C(=O)Nc2ccccc2)c(-c2ccccc2)c(-c2ccc(F)cc2)n1CC[C@@H](O)C[C@@H](O)CC(=O)O [ATORVASTATIN] | 10.3 µM | – | – | – | –
C[C@@H]1CC[C@H]2[C@@H](C)C(c3cccn3C)O[C@@H]3O[C@@]4(C)CC[C@@H]1[C@]32OO4 (some centres undefined) | – | – | – | – | 0.0046 µM
CC(C)c1c(C(=O)Nc2ccccc2)c(-c2ccccc2)c(-c2ccc(F)cc2)n1CCNc1ccnc2cc(Cl)ccc12 | 0.99 µM | > 1660 µM | > 1680 | 5 | –

Source: ChEMBL document CHEMBL3785001, “New pentasubstituted pyrrole hybrid atorvastatin-quinoline derivatives with antiplasmodial activity” (Bioorg Med Chem Lett, 2016)
